Data reported in ChEMBL document CHEMBL1201862, “PubChem BioAssay data set” (2004).
Active and inactive are the calls of the source.

Columns and labels:
[1] = A549 cell cytotoxicity, dose response, cytotoxicity control, plate reader, cherry-pick, antagonist series (AID 743412); format: functional, cell-based
[2] = HepG2 cell cytotoxicity, dose response, cytotoxicity control, plate reader, cherry-pick, antagonist series (AID 743416); format: functional, cell-based
[3] = Fluorescence-based cell-based high throughput dose response assay for inhibitors of the interaction of nucleotide-binding oligomerization domain containing 2 (NOD2) and the receptor-interacting serine-threonine kinase 2 (RIPK2).; format: functional; settings: Homo sapiens
[4] = biological target: T1, Microphthalmia-associated transcription factor (Homo sapiens, UniProt O75030); experiment: TRPM1 promoter luciferase signal decrease, dose response, MITF inhibitor project, cell-based, SK-MEL-5, cherry-picked, set 3 (AID 493073); format: functional
T1 sequence (O75030 whole entry): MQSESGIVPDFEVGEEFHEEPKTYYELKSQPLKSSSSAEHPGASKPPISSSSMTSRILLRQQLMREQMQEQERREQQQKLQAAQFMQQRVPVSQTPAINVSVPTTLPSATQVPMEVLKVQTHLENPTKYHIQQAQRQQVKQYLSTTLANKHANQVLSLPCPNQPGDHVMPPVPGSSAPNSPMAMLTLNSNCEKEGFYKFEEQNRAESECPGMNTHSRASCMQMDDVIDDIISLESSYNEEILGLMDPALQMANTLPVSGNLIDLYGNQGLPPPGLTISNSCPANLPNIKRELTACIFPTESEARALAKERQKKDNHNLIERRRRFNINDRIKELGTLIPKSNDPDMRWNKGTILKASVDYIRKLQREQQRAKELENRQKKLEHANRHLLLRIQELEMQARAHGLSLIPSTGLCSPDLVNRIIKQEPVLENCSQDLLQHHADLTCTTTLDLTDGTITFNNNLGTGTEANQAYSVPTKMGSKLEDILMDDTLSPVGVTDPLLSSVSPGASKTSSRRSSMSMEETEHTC

[5] = LGR2 antagonists, dose response, cell-based, HEK293, CRE-luciferase reporter, cherry pick, set 2 (AID 743343); format: functional;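 also: transfected cells were stimulated with diluted bursicon conditioned medium after compound addition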
[6] = MC4R antagonists, dose response, counter-screen for LGR2 antagonist project, cell-based, plate reader, cherry pick (AID 743444); format: functional;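 also: transfected HEK 293 cells stimulated with alpha-MSH peptide; potency of inhibitors of the alpha-MSH evoked signal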
[7] = HEK293 cell cytotoxicity, dose response, cytotoxicity control, plate reader, cherry-picked samples (AID 743446); format: functional, cell-based
[8] = miR-122 activators in hepatoma reporter cells, dose response, cell-based, Huh7 psiCHECK-miR122, Renilla luciferase, cherry-picked (AID 651956); format: functional;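 also: huh7 hepatoma cells stably carrying a psiCHECK-2 miR-122 sensor plasmid; renilla luciferase signal reporting endogenous miR-122 activity after 48 h compound exposure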
[9] = biological target: T2, Streptokinase A (Streptococcus pyogenes serotype M1, UniProt P10520); experiment: S. pyogenes streptokinase expression inhibitors, potency, dose response, plasminogen activation absorbance, OD405 (AID 1914); format: functional, Streptococcus pyogenes M1 GAS;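 also: secreted streptokinase activity via plasminogen activation per viability signal from cell pellet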
T2 sequence (P10520 whole entry): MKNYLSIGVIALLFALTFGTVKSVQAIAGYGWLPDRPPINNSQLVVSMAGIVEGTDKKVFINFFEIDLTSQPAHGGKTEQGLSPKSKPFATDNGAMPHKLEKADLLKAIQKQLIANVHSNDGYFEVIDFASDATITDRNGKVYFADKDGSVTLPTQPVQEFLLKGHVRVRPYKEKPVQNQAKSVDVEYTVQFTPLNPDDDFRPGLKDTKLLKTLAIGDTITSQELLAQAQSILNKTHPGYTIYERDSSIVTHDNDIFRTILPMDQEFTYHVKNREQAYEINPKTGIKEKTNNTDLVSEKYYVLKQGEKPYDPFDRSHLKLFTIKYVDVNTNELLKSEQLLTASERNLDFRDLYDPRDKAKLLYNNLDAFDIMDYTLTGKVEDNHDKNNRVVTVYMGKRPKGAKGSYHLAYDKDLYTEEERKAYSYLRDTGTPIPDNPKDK

[10] = biological target: T3, Probable nicotinate-nucleotide adenylyltransferase (Staphylococcus aureus (strain N315), UniProt P65502); format: functional, Staphylococcus aureus subsp. aureus N315; settings: read-out: IC50_Mean;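 as to IC50 Mean: confirmatory dose-response retesting of NadD inhibitor hits first found in an ultra-high-throughput screen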
T3 sequence (P65502 whole entry): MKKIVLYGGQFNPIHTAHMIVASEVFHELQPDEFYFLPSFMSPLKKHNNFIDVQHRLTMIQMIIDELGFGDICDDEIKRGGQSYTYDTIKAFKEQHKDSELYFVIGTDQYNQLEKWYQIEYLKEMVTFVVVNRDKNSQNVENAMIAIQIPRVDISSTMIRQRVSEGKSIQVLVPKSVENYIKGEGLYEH

[11] = biological target: T3, Probable nicotinate-nucleotide adenylyltransferase; format: functional, Staphylococcus aureus subsp. aureus N315
[12] = tested on: Streptococcus sp. 'group A'; experiment: growth inhibition of control SK(-) GAS strain, dose response, counter-screen for streptokinase expression inhibitor project, luminescence, kanamycin, BacTiterGlo, confirmation (AID 1900); format: functional, organism-based
[13] = tested on: Streptococcus; experiment: Group A Streptococcus viability loss, dose response, counter-screen for streptokinase expression inhibitor project, luminescence, BacTiterGlo (AID 1915); format: functional, organism-based;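 also: potency for reduction of bacterial viability or growth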
[14] = StAR promoter reporter inhibition counter-screen, dose response, counter-screen for LRH-1 inverse agonist project, cell-based, luminescence, luciferase reporter (AID 651969); format: functional
[15] = biological target: Nuclear receptor subfamily 5 group A member 2 (Homo sapiens, UniProt O00482); format: functional, cell-based;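 also: HEK293T cells transfected with LRH-1 and a StAR promoter luciferase reporter; potency for inhibitors that lower LRH-1 driven reporter light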
Nuclear receptor subfamily 5 group A member 2, sequence (O00482 whole entry): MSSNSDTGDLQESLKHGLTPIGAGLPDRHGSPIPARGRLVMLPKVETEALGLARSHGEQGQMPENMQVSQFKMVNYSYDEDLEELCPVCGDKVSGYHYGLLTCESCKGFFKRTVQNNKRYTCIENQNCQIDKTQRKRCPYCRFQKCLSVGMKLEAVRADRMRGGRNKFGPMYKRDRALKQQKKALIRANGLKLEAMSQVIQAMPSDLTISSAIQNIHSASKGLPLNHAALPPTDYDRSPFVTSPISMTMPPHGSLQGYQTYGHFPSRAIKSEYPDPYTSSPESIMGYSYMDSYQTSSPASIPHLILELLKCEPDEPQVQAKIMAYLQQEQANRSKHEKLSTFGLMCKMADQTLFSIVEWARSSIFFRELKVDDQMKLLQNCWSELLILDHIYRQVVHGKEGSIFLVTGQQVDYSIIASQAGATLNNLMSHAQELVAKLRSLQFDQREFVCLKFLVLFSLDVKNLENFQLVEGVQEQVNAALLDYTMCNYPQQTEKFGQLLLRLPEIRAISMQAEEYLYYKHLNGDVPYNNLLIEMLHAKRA

[16] = biological target: Steroidogenic factor 1 (Homo sapiens, UniProt Q13285); experiment: Counterscreen for inverse agonists of the liver receptor homolog-1 (LRH-1; NR5A2): Luminescence-based cell-based high throughput dose response assay to identify inverse agonists of the Steroidogenic Factor 1 Nuclear Receptor (SF1; NR5A1).; format: functional
Steroidogenic factor 1, sequence (Q13285 whole entry, the tested form may be a part): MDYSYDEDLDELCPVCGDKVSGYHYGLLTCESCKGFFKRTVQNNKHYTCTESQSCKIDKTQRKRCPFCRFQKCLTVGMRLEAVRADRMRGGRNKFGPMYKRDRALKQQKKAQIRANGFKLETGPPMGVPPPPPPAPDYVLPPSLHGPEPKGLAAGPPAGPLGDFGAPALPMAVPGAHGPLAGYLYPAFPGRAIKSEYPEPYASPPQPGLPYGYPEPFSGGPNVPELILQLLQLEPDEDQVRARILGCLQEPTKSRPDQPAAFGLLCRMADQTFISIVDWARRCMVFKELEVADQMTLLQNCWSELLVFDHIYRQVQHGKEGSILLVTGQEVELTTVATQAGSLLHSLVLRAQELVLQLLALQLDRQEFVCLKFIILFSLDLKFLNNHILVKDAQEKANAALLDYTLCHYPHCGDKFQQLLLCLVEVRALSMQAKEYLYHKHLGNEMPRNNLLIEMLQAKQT

[17] = CEM21 lymphoblast cell cytotoxicity, dose response, cytotoxicity control for viral fusion inhibitor project, CellTiter-Glo luminescence, cherry-picked (AID 652042); format: functional, cell-based;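 also: potency for signal decrease meaning cytotoxicity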
[18] = inhibitors of HIV Env-driven cell fusion, dose response, cherry-pick (AID 652057); format: functional, cell-based
[19] = off-target signal loss in HeLa-CEM21 co-culture – HeLa F-luc CTL cells, cherry-picked, counter-screen for HIV-1 Env fusion inhibitor project, dose response (AID 652040); format: functional, cell-based;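 also: potency for signal decrease marking cytotoxic or nonspecific inhibition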
[20] = ZM109 Env clade C HIV-1 fusion inhibitors, dose response, HeLa effector, CEM target cells, luciferase, cherry-pick (AID 652058); format: functional, cell-based
[21] = intracellular Trypanosoma cruzi inhibitors in host cells – cell-based, plate reader, cherry-pick samples, set 3, dose response (AID 651818); format: functional;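 also: compounds incubated with infected cells for about four days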
[22] = HEp-2 cell cytotoxicity, dose response, cytotoxicity control for RSV inhibitor project, HTS (AID 2410); format: functional; settings: human respiratory syncytial virus
[23] = cells
[24] = biological target: T4, Adenosylmethionine-8-amino-7-oxononanoate aminotransferase (Mycobacterium tuberculosis, UniProt P9WQ81); experiment: Mycobacterium tuberculosis BioA enzyme inhibitor Measured in Biochemical System Using Plate Reader - 2163-02_Inhibitor_Dose_CherryPick_Activity.; format: functional, Mycobacterium tuberculosis UT205
T4 sequence (P9WQ81 whole entry): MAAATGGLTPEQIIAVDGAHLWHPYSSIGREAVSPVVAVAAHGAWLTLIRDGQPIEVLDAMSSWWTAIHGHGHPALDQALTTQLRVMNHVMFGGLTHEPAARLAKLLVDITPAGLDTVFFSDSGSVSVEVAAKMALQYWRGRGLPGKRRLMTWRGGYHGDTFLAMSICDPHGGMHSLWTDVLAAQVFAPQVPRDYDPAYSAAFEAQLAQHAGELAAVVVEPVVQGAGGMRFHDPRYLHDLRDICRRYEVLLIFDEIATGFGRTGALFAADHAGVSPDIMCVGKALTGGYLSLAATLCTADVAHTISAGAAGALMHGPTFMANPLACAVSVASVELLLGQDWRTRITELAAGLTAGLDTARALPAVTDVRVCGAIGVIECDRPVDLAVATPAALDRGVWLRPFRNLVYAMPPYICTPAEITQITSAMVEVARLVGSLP

With `Cc1cc(Br)ccc1NC(=O)CNC(=O)Cn1ncc(Cl)c(Cl)c1=O` the AC50 [1] was 3.92 µM (active), the AC50 [2] was > 52 µM (inactive) and the IC50 [3] was 1.84 µM (active). The AC50 [4] was 7.47 µM (active), the AC50 [5] was 4.51 µM (active) and the AC50 [6] was 5.41 µM (active). For the same compound, the AC50 [7] was 4.54 µM (active).

For `C[C@@H]1CN([C@H](C)CO)S(=O)(=O)c2ccc(C3=CCCC3)cc2O[C@@H]1CN(C)C(=O)Cc1ccncc1`, the AC50 [8] was 5.84 µM (active).

With `Cc1nn(-c2ccc(Cl)cc2)c(Cl)c1/C=N/NC(=O)c1ccc(NS(=O)(=O)c2cccs2)cc1` the EC50 [9] was > 150 µM (not active), the IC50 [10] was 27.4 µM (active) and the IC50 [11] was 7.71 µM (active). For the same compound, the EC50 [12] was 1.53 µM (active) and the EC50 [13] was 5.2 µM (active).

In the case of `CCCN(CC(=O)Nc1ccccc1C)CC(=O)Nc1ccc(Br)cc1F`, the IC50 [14] is reported as 35.1 µM (inactive), the IC50 [15] is reported as 10.6 µM (inactive) and the IC50 [16] is reported as 1.33 µM (active).

For `C[C@H](O)[C@@H]1C(=O)N2CCc3c([nH]c4cccc(-c5ccccc5)c34)[C@@H]2C[C@@H]1N(C)C(=O)OCc1ccccc1`, the AC50 [17] was 32.5 µM (active), the AC50 [18] was 5.22 µM (active) and the AC50 [19] was 3.94 µM (active). For the same compound, the AC50 [20] was 3.65 µM (active).

For `C[C@H](CO)N1C[C@H](C)[C@H](CN(C)Cc2ccc(C(=O)Nc3ccccc3N)cc2)Oc2ccc(NS(=O)(=O)c3ccc(Cl)cc3)cc2CC1=O`, the AC50 [21] was 1.91 µM (active).

With `O=S(=O)(c1cccc(Cl)c1)N1CCCC(c2nc(O)c3nnn(Cc4ccc5c(c4)OCCO5)c3n2)C1` (stereo not given) the CC50 [22] was 11.3 µM (active), the IC50 [10] was 30.5 µM (active) and the IC50 [11] was 9.91 µM (active). The IC50 [23] was 10.3 µM (active).

In the case of `COc1ccccc1C#Cc1ccc([C@H]2[C@@H](CO)N3CCCCN(CCC(F)(F)F)C[C@H]23)cc1`, the AC50 [8] is reported as 17.6 µM (active).

For `O=C(NC1CCCc2c1cnn2-c1cc(F)cc(F)c1)c1ccc[n+]([O-])c1` (stereo not given), the AC50 [24] was 4.29 µM (active).

With `COc1cc(OC)cc(-c2oc3cccnc3c2C#CCCO)c1` the IC50 [14] was 27.3 µM (inactive), the IC50 [15] was 1.87 µM (active) and the IC50 [16] was 0.443 µM (active).
